Measured values from PMC8540265, “Activity of New Synthetic (2-Chloroethylthio)-1,4-naphthoquinones in Prostate Cancer Cells” (Pharmaceuticals, 2021).
Like-named read-outs stand apart in the source and are kept apart here.

Columns and labels:
22Rv1 cells [1] = test system: 22Rv1 cells
22Rv1 cells [2] = format: cell-based, human
22Rv1 cells [3] = experiment: MTT cytotoxicity test, 22Rv1 cells; format: cell-based, human
Experimental: (§1) A total of 6000 cells/well were seeded in 96-well plates, incubated overnight, and treated with the drugs in 100 μL/well of the corresponding fresh culture media for 48 h, as previously described. For combinational assays, the cells were pre-treated with the corresponding inhibitor for the indicated time and then co-treated with the tested compounds for 48 h. Then, 10 μL/well of MTT ((3-(4,5-dimethylthiazol-2-yl)-2,5-diphenyltetrazolium bromide) solution was added and the cell viability was measured as previously reported.

PNT2 cells = experiment: MTT cytotoxicity test, PNT2 cells; format: cell-based, human
Experimental: as §1

PC-3 cells = format: cell-based, human
[4] = Homo sapiens, PNT2, 48 h, MTT, non-cancer prostate cells

Molecule: 2-[2-(3-chlorophenyl)hydrazinylyidene]propanedinitrile [CCCP]
- effect on mitochondrial membrane potential (ΔΨm) (22Rv1 cells [1]): provoked mitochondrial membrane depolarization

Molecule: COc1ccc(C[C@H]2NC[C@H](O)[C@H]2OC(C)=O)cc1 [Aniso, anisomycin]
- effect of pre-treatment with pan-caspase inhibitor zVAD on induced apoptosis (22Rv1 cells [2]): Comparable effects

Molecule: COc1ccc2c(c1O)C(=O)C(O)=C(C)C2=O [Compound 11, ancistroquinone B]
- IC50 (22Rv1 cells [3]; Homo sapiens, 22Rv1, 48 h, MTT): > 100 µM
- IC50 (PNT2 cells; [4]): > 100 µM

Molecule: CC1=C(O)C(=O)c2c(ccc(O)c2O)C1=O [Compound 12, dioncoquinone B]
- IC50 (22Rv1 cells [3]; Homo sapiens, 22Rv1, 48 h, MTT): 89.5 ± 24.9 µM
- IC50 (PNT2 cells; [4]): > 100 µM

Molecule: COc1cc2c(c(OC)c1OC)C(=O)C(CSCCCl)=C(O)C2=O [Compound 34, 3-((2-Chloroethylthio)methyl)-2-hydroxy-5,6,7-trimethoxy-1,4-naphthoquinone]
- IC50 (22Rv1 cells [3]): > 100 µM
- IC50 (PNT2 cells): > 100 µM

Molecule: O=C1C(O)=C(CSCCCl)C(=O)c2c(O)c(Cl)c(Cl)c(O)c21 [Compound 37, 6,7-Dichloro-2-((2-chloroethylthio)methyl)-3,5,8-trihydroxy-1,4-naphthoquinone]
- IC50 (22Rv1 cells [3]): 48.6 ± 12.2 µM
- Selectivity Index [IC50(PNT2)/IC50(22Rv1)] (22Rv1 cells [3]): 0.58
- IC50 (PNT2 cells): 28.2 ± 1.04 µM

Molecule: COc1cc(O)c2c(c1O)C(=O)C(O)=C(CSCCCl)C2=O [Compound 38, 2-((2-Chloroethylthio)methyl)-3,5,8-trihydroxy-6-methoxy-1,4-naphthoquinone]
- IC50 (22Rv1 cells [3]): > 100 µM
- IC50 (PNT2 cells): > 100 µM

Molecule: CC(=O)O[C@@H]1O[C@H](CSC2=CC(=O)c3c(O)c(C)c(C)c(O)c3C2=O)[C@@H](OC(C)=O)[C@H](OC(C)=O)[C@H]1OC(C)=O [SAB-1]
- increase in activity in PC-3 cells on introduction of the 2-chloroethylthio group (PC-3 cells): 5 fold
